This is an account of results in PubChem BioAssay (NCI).

Each structure is given as a SMILES string. “And” between values parts separate entries of the source, which are not always exact repeats. Equal values may be shown once.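 Briefly, cells in 96-well plates were exposed to five compound concentrations for 48 h, and endpoints were estimated by linear interpolation. The concentration for 50% growth inhibition is given as GI50. TGI: total growth inhibition.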 Where a SMILES comes first, the peptide text is derived from it. The star is where a group is joined. Boc = CC(C)(C)OC(=O)*; Bn = c1ccc(C*)cc1

What all share (experiment): NCI anticancer screen, dose series, 48 h
In test [1] the test system is EKVX NSCLC.
Test [2] deals with HS 578T breast.
Test [3] concerns K-562 leukemia.
The subject of test [4] is LOX IMVI melanoma.
Test [5] deals with MDA-MB-231 breast.
In test [6] the test system is MDA-N.
Test [7] has as its system MOLT-4 leukemia.
The subject of test [8] is RPMI-8226 leukemia.
In test [9] the test system is SF-295 CNS.
Test [10] has as its system SK-MEL-28 melanoma.
Test [11] has as its system SK-MEL-5 melanoma.
For test [12], the system named is SN12C renal.
Test [13] has as its system SR leukemia.

In the case of `CCCCC1(O)CC2CC1C(C)C2(C)C` (stereo unspecified), the TGI in test [1], in test [2], in [3], in [4], in test [5] and in test [6] was > 100 µM in each case. Moreover, the TGI in test [7], in test [8], in [9], in [10], in test [11] and in test [12] was > 100 µM throughout. For the same compound, in [13], the TGI was > 100 µM.

Consider `O=C1CC2CC(CC3(CO3)C2)C1F` (stereo unspecified), for which the TGI in test [1], in test [2], in test [3], in [4], in [5] and in test [6] was > 100 µM throughout. For the same compound, the TGI in [7], in test [8], in test [9], in test [10], in test [11] and in test [12] was > 100 µM in each case. Further, the TGI in [13] is > 100 µM.

For the compound `C=CC1(c2ccc3ccccc3c2)OCC(CC)O1` (stereo unspecified), the TGI in test [1] was > 100 µM; in test [2], 77 µM; in [3], 85.1 µM; in test [4], 44.3 µM; in test [5] it was 0.469 µM; in test [6], > 100 µM. Also, the TGI is 87.9 µM in [7]; > 100 µM in test [8]; > 100 µM in test [9]; > 100 µM in [10]; > 100 µM in test [11]; > 100 µM in test [12]. The same compound showed a TGI in [13] of 61.4 µM.

As for `CCNc1nnc(-c2ccccc2Nc2ccccc2-c2nnc(NCC)s2)s1`, the TGI was > 100 µM in test [1]; > 65.7 µM in [2]; > 100 µM in test [3]; 38.5 µM in test [4]; 25.7 µM in [5]; 35 µM in test [6]. Also, the TGI in [7] is > 78.3 µM; in [8], 73.4 µM; in test [9], 40.5 µM; in test [10], 55.2 µM; in [11], 25.6 µM; in [12], > 49.7 µM. Besides, in test [13], the TGI is > 100 µM.

`O=C1/C(=C/c2ccc(O)c(O)c2)CC/C1=C\c1ccc(O)c(O)c1`: the TGI is > 75.3 µM in test [1]; > 100 µM in test [2]; 27.7 µM in test [3]; > 56.1 µM in [4]; > 100 µM in test [5]; > 100 µM in test [6]. Besides, the TGI in test [7] was > 36.8 µM; in [8], 76.3 µM; in test [9] it was > 100 µM; in test [10] it was > 100 µM; in [11], > 60.3 µM; in [12], > 79.5 µM. Also, the TGI in test [13] is > 29.5 µM.

`C#CCOCn1cc(C)c(=O)[nH]c1=O`: the TGI in [1], in test [2], in [3], in [4], in [5] and in test [6] was > 100 µM in each case. Further, the TGI in test [7], in test [8], in test [9], in test [10], in test [11] and in test [12] was > 100 µM each time. Further, in test [13], the TGI is > 100 µM.

As for `CCC1CCC2c3c([nH]c4ccc(C)cc34)C3C(=O)N(N(C)C)C(=O)C3C2C1` (stereo unspecified), the TGI is > 100 µM in test [1]; 33 µM in [2]; > 57 µM in test [3]; > 100 µM in test [4]; > 100 µM in test [5]; 4.52 µM in [6]. The TGI in test [7] is > 100 µM; in test [8] it was > 88.3 µM; in [9], > 33.4 µM; in test [10] it was > 100 µM; in test [11] it was > 100 µM; in [12], > 100 µM. In [13], this compound returned a TGI of 48.6 µM.

Regarding `S=C1CC(c2ccccc2)Sc2cc(Cl)ccc2N1` (stereo unspecified), the TGI in test [1] is > 100 µM; in test [2] it was 84 µM; in test [3], 11.2 µM; in test [4] it was > 100 µM; in [5], 20.7 µM; in [6] it was 39.6 µM. Further, the TGI in [7] is 28.2 µM; in [8] it was > 100 µM; in [9] it was 12.6 µM; in test [10], 51.8 µM; in test [11] it was 29.4 µM; in test [12], > 100 µM. This compound registered a TGI in [13] of 83.7 µM.

Take `CC(=O)NC1COC(COC(=O)CCCCCCCCCCNC(=O)c2ccc([N+](=O)[O-])c3c(=O)c4ccccc4[nH]c23)C(O)C1OC(C)C(=O)NC(C(=O)NC(CCC(N)=O)C(=O)OCc1ccccc1)C(C)C` (stereo unspecified): the TGI in [1] is 27.8 µM; in [2], 17.6 µM; in test [3] it was 54.2 µM; in test [4], 30.1 µM; in test [5], > 100 µM; in [6], 75 µM. For the same compound, the TGI in test [7] was 61.3 µM; in [8], 23.1 µM; in test [9], 42.7 µM; in test [10], 41.7 µM; in [11] it was 57.9 µM; in test [12], > 92.6 µM. Also, the TGI in test [13] was determined as 46.5 µM.

As to `O=S(=O)(c1cc(Cl)ccc1Cl)N1CCN(c2cccc(Cl)c2)CC1`, the TGI in test [1], in test [2], in test [3], in test [4], in test [5] and in test [6] was > 100 µM in each case. Moreover, the TGI in [7], in test [8], in test [9], in test [10], in test [11] and in test [12] was > 100 µM in each case. Also, the TGI in test [13] was > 100 µM.

As for `C=C(Cl)C(C)(Cl)CCC(Cl)C(C)C` (stereo unspecified), the TGI is > 100 µM in test [1]; > 100 µM in test [2]; > 100 µM in [3]; 47.6 µM in test [4]; > 100 µM in test [5]; > 100 µM in test [6]. Moreover, the TGI in [7], in [8], in test [9], in [10], in [11] and in [12] was > 100 µM in each case. Moreover, the TGI in [13] came to 64.2 µM.

`CCCCCCCCCCOCCOCCOCCOCCCCC(O)CCCCCCCC1=C[C@H](C)OC1=O` (stereo partly specified): the TGI in [1] was determined as 26.4 µM; in test [2], 31.1 µM; in test [3], 36.3 µM; in test [4], 28 µM; in [5], 30.8 µM; in test [6], 24.3 µM. Further, the TGI amounted to 20.8 µM in test [7]; 24 µM in [8]; 21.5 µM in test [9]; 25.3 µM in test [10]; 22.2 µM in [11]; 29.9 µM in test [12]. Further, the TGI in test [13] was determined as 19.6 µM.

`C[N+]12C=CC=C1C(N1CCCC1)c1scc(-c3ccc(F)cc3)c12` (stereo unspecified): the TGI in [1] was > 100 µM; in test [2], > 100 µM; in test [3], 26.5 µM; in [4], > 100 µM; in [5], > 100 µM; in [6] it was > 100 µM. Also, the TGI is 78.1 µM in test [7]; > 100 µM in [8]; > 100 µM in test [9]; > 100 µM in [10]; 36.2 µM in [11]; > 100 µM in test [12]. This compound registered a TGI in test [13] of 31.9 µM.

As to `Cc1cn(C2CCN(CC3COC(C)(C)O3)O2)c(=O)[nH]c1=O` (stereo unspecified), the TGI in test [1], in test [2], in test [3], in [4], in test [5] and in test [6] was > 100 µM throughout. The TGI in test [7], in test [8], in [9], in test [10], in [11] and in test [12] was > 100 µM throughout. Moreover, the TGI in test [13] is > 100 µM.

Regarding `COc1cc(CNc2c3ccccc3nc3ccccc23)cc(OC)c1OC`, the TGI in test [1] was found to be 21.4 µM; in test [2] it was 29.8 µM; in [3] it was 2 µM; in test [4], 6.75 µM; in test [5], 23.6 µM; in [6], 13 µM. For the same compound, the TGI in test [7] is > 22 µM; in test [8] it was > 27.3 µM; in test [9], 14.4 µM; in [10], 20.2 µM; in [11] it was 7.83 µM; in test [12] it was 15.3 µM. In test [13], this compound registered a TGI of 7.58 µM.

In the case of `Cc1cccc(C)c1N=Nc1ccc(O)c(CN(C)C)c1`, the TGI in [1], in test [2], in test [3], in test [4], in test [5] and in test [6] was > 100 µM throughout. Also, the TGI in test [7] was > 100 µM; in [8], > 100 µM; in test [9], > 100 µM; in test [10], 60.6 µM; in test [11], 25.2 µM; in test [12], > 100 µM. Further, the TGI in [13] was > 100 µM.

`CNC(=O)C(CC(C)C)NC(=O)C(C)NC(=O)C(Cc1ccc(OCc2ccccc2)cc1)NC(=O)C(COCc1ccccc1)NC(=O)OC(C)(C)C` (stereo unspecified) (Boc-S(Bn)Y(Bn)AL-NHMe; configuration not given here): the GI50 was > 100 µM and 26.4 µM in test [1]; 24.8 µM and 4.27 µM in [8]; > 43.9 µM and 21 µM in test [9]; > 62.5 µM and 14.1 µM in test [10]; 47.9 µM and 11.7 µM in [11]; > 52.3 µM and 18.8 µM in test [12]. Further, the TGI in [1] was > 100 µM and 77.9 µM; in test [2], 58.1 µM and 31.4 µM; in test [3], > 48 µM and 38.4 µM; in test [4] it was 27.5 µM and 48.8 µM; in test [5], 35.7 µM and 36 µM; in test [6], 30 µM and 30.9 µM. Further, the TGI in [7] was 22.9 µM and 38.5 µM; in [8] it was 64.4 µM and 27 µM; in test [9], > 61 µM and 41.2 µM; in test [10] it was > 100 µM and 30.9 µM; in test [11], > 100 µM and 23.9 µM; in test [12], > 86.4 µM and 42.1 µM. Moreover, the TGI in test [13] was > 46.1 µM and 86.9 µM.

Turning to `CCOC(=O)C1(N)CC1`, the TGI in test [1], in test [2], in [3], in test [4], in test [5] and in [6] was > 100 µM each time. Moreover, the TGI in [7], in [8], in test [9], in test [10], in test [11] and in test [12] was > 100 µM in each case. Moreover, the TGI in test [13] was > 100 µM.

For the compound `C(#CC1(Nc2ccccc2)CCN(Cc2ccccc2)CC1)C1(Nc2ccccc2)CCN(Cc2ccccc2)CC1`, the TGI in [1] was > 46.4 µM; in test [2], 37.2 µM; in test [3] it was 16.1 µM; in [4], 38.7 µM; in test [5], 42.8 µM; in [6], > 56.2 µM. Further, the TGI in [7] was 32.7 µM; in test [8] it was 4.88 µM; in test [9], > 56.2 µM; in test [10], 26.7 µM; in test [11], 18.3 µM; in test [12] it was > 56.2 µM. Also, in test [13], the TGI was > 24.8 µM.

Turning to `Cc1ccc(C(=O)N/N=C(\N=Nc2ccccc2Cl)c2ccc(N(C)C)cc2)cc1`, the TGI in test [1] was > 100 µM; in test [2], > 100 µM; in test [3], > 100 µM; in test [4], > 100 µM; in test [5], > 100 µM; in test [6], 34.5 µM. Moreover, the TGI in test [7], in [8], in test [9], in test [10], in test [11] and in [12] was > 100 µM each time. In [13], this compound gave a TGI of 68.7 µM.
